Measured values published in US9540615B2, “Combined chemical and genetic approaches for generation of induced pluripotent stem cells” (The Scripps Research Institute, priority 2008, dated 2017).
“Also recorded” adds a separate entry of the source.

Columns and labels:
[1] = tested on: 129 MEFs transduced with OK (Oct4 and Klf4); test: Screen for iPSC generation from OK-transduced 129 MEFs (ESC-like colony morphology, ALP staining); assay type: cell-based, mouse; details: in the absence of BIX
Description: Unmodified MEFs derived from E13-14 embryos of the 129 mice were used for the initial screen. MEFs were plated on Matrigel at 3.5×10^4 cells/well of a 6-well plate and transduced with OK (retroviral vectors expressing Oct4 and Klf4) alone. Within 14-21 days, treated cells were assessed for the appearance of colonies that had the characteristic embryonic stem cell (ESC), colony morphology and were positive for the pluripotency marker alkaline phosphatase (ALP). Such OK-transduced cells generated only a few small non-compact colonies, which were weakly positive for ALP expression. These colonies initially appeared within 21 days after viral transduction and were difficult to expand. Therefore, such assay system offered a clean background for the identification of small molecules having desirable reprogramming inducing activity. Using this system, compounds from a library of around 2000 known small molecules (see Experimental Procedures below) were screened and were identified as hits when they induced the appearance of ESC colonies that were strongly positive for ALP within 14-21 days after treatment. This image-based method provided a more accurate assessment of reprogramming as compared to homogenous reporter-based assay. BIX appeared to have the strongest effect with reproducible induction of more than 1-2 compact ESC-like colonies with high ALP expression. We observed that when MEFs were treated with BIX after OK viral transduction, compact colonies with strong ALP expression could be readily detected within approximately 14-21 days. These cells were also positive for Nanog, Oct4 and SSEA-1 expression. […] However, the reprogramming efficiency in MEFs transduced with OK and treated with BIX was still low, about 2 colonies/3.5×10^4 cells, in comparison to the four factor-induced reprogramming of MEFs or the OK/BIX NPC reprogramming (Shi, Y. et al., Cell Stem Cell, 2:525-528 (2008)). Therefore, we conducted a second screen using a similar protocol, but where BIX was added to the basal media after OK viral transduction. This provided a more permissive platform to identify new small molecules that could further improve reprogramming efficiency. More importantly, this second screen could facilitate discovery of small molecules that impact reprogramming in a more specific manner, for example by acting on signal transduction pathways rather than on histone or DNA modifying enzymes. In this second screen, we again assayed the library of around 2000 known small molecules (see Experimental Procedures), and confirmed two compounds that were able to act in a synergistic manner with BIX to improve reprogramming based on the criteria of the screen. […] Therefore, RG108 was not pursued further for this study. […]

mES R1 cells = test: Proliferation assay; assay type: cell-based, mouse; details: 2 μM BayK, 1 μM BIX or both; 15, 24 and 48 hours; compared to DMSO, n=3
Description: mES R1 cells were plated onto gelatin-coated 6-well plates at a density of 2×10^5 cells/well in complete mES cell media. Upon cell attachment, app. 12 hours, the cells were treated either with DMSO, 1 μM BIX, 2 μM BayK, and a combination of both, in triplicate. At 15, 24 and 48 hours, the cells were detached using trypsin, and counted using a hemocytometer. Trypan blue (Sigma-Aldrich, St. Louis, Mo.) was used for dead cell exclusion.

[2] = tested on: Sox2 expression in OG2 MEFs; test: Assessment of SOX2 expression after compound treatment (semi-quantitative RT-PCR); assay type: cell-based, mouse; details: 2 μM BayK alone or with 1 μM BIX, 6 days
Description: OG2^+/−/ROSA26^+/− MEFs were plated onto 6-well plate at a density of 3.4×10^4 cells per well. On the following day, the cells were treated with DMSO, 1 μM BIX, 2 μM BayK, and a combination of both, in triplicate, for 6 days. The media was refreshed at day 3. RNA from each well was then isolated using the RNAeasy Mini Kit (Quiagen). Reverse transcription of the RNA was performed using the iScript™cDNA Synthesis Kit (BioRad, Hercules, Calif.). Amplification of endogenous Sox2 was done using primers previously published (Takahashi, K., Okita, K., Nakagawa, M., and Yamanaka, S. (2007). Induction of pluripotent stem cells from fibroblast cultures. Nat Protoc 2, 3081-3089; Takahashi, K., and Yamanaka, S. (2006). Induction of pluripotent stem cells from mouse embryonic and adult fibroblast cultures by defined factors. Cell 126, 663-676) with Platinum PCR SuperMix (Invitrogen) on a Mastercycler® ep gradient PCR machine (Eppendorf).

[3] = tested on: OG2 MEFs transduced with OK (Oct4 and Klf4); test: iPSC generation from OK-transduced OG2 MEFs (GFP+ colonies), including second synergist screen with BIX; assay type: cell-based, mouse; details: for effect on reprogramming of OK transduced MEFs in the second screen: in the presence of 1 μM BIX, FIG. 3: 0.04 μM RG108, 2 μM BayK; for outcome in second synergist screen: 1 μM BIX plus individual compound at 0.5-2 μM, not further followed up
Description: Primary 129S2/SvPasCrlf (primary screen) or ROSA26^+/−/OG2^+/− (secondary screen) MEFs were plated onto Matrigel (1:50; BD Biosciences, Bedford, Mass.) coated dishes at a density of 3.5×10^4 cells per well of a 6-well plate. Twenty-four hours later, these cells were transduced overnight with defined retroviruses at 37° C., 5% CO2. Twelve to fourteen hours later, the media on the transduced cells was changed to mESC medium [Knockout DMEM, 10% ES-qualified FBS, 10% Knockout serum replacement, 1% Glutamax, 1% Non-essential amino acids, penicillin/streptomycin, 0.1 mM β-mercaptoethanol, 1% EmbryoMax ESC Qualified Nucleosides (Millipore, Temecula, Calif.), and 10^3 U/ml LIF (Millipore)] (all products were from Invitrogen, Carlsbad, Calif., except where mentioned). On that same day, individual small molecules from our known drug collection were added to the cells at a range between 0.5 and 2 μM. Compound treatment was continued for 10-14 days; the cells were fixed and stained on day 14-21 using a standard ALP detection kit (Millipore). For the second screen, 1 μM BIX was added to the mESC medium 1 day after transduction. Five days later, in addition to 1 μM BIX, individual small molecule from the known drug collection was added to each well, at a range between 0.5 and 2 μM. Mouse ESC media with defined small molecules was refreshed every three days until colonies with a similar morphology to mESCs were observed, which was usually between 14-21 days after transduction. […] Further characterization studies and repeats were carried either on primary 129S2/SvPasCrlf or ROSA26^+/−/OG2^+/− MEFs. When ROSA26^+/−/OG2^+/− MEFs were used, the iPSC colonies could also be identified through GFP expression, as a marker of Oct4 expression. Once iPSC colonies were identified, they were picked for expansion on MEF feeder cells in mESC medium.

cellular reprogramming = test: Enhancement of cellular reprogramming by nuclear receptor ligands; assay type: cell-based
Mouse fibroblasts = test: Induction of pluripotency by incubation of fibroblasts with poly-Arg transcription factor proteins; assay type: cell-based; details: agent added during protein-induced reprogramming
Description: Mouse fibroblasts were grown in mESC medium supplemented with 8 μg/ml of either Oct4/Sox2/Klf4 or Oct4/Sox2/Klf4/Myc (all proteins comprising poly-Arg as described above) for 6-8 hours, washed, and incubated for 2-3 days in mESC media without the above-listed transcription factors. This (4-12 hours with, 1-3 days without) was repeated a number (1, 2, 3, 4, or more) of times and then the cells were cultures in mESC for two weeks.

non-iPS cells = test: MEK inhibitor applied at late stage of reprogramming as selection: growth of non-iPS cells; assay type: cell-based, mouse; details: late stage of reprogramming (after Oct4-GFP activation)
Description: (§1) Finally, we observed that the application of a specific small molecule inhibitor of MEK, PD0325901, to late stage of reprogramming (e.g. after Oct4-GFP activation) can serve as an excellent selection strategy for generating iPS cells. Due to the very low efficiency of reprogramming, iPS cells are typically selected out by utilizing reporter (e.g. Neo/Puro or GFP) that is under control of the regulatory elements of a pluripotency marker using genetically modified somatic cell lines, or manually picked out based on cell morphology. While the later method applicable to genetically unmodified cells is better suited for ultimate clinical application of iPS cells, it is a much more tedious and less reliable technique that typically requires picking and propagating over several passages many colonies, only a small fraction of which would become true iPS cells efficiently. This is partly because that large percentage of similarly looking colonies may be partially reprogrammed cells and/or simply transformed cells, which grow rapidly and may interfere with growth and reprogramming of iPS cells. Consequently, having an alternative selection strategy for genetically unmodified cells would be highly desirable.

iPS cells = test: MEK inhibitor applied at late stage of reprogramming as selection: growth and stable reprogramming of iPS cells; assay type: cell-based, mouse; details: late stage of reprogramming (after Oct4-GFP activation)
Description: as §1

Question: Which “reprogramming activity on OK-transduced MEFs” value [1] does the source give for `COC(=O)C1=C(C)NC(C)=C([N+](=O)[O-])C1c1ccccc1C(F)(F)F` (stereo not shown) [BayK] here?
Answer: no observable reprogramming activity

Question: What about the “proliferation of mES cells (cell number)” value (mES R1 cells) of the same compound?
Answer: No significant difference; also recorded: does not lead to a change in proliferation

Question: What about the SOX2 expression [2] of the same compound?
Answer: does not induce SOX2 expression

Question: What about the “reprogramming efficiency versus OK-transduced MEF control” value ([3]; compound alone, in the absence of BIX (data not shown)) of the same compound?
Answer: did not increase reprogramming efficiency above OK-transduced MEF control

Question: And the “effect on reprogramming of OK transduced MEFs in the second screen” value [3]?
Answer: strongest effect in the screen aside from known DNA/histone modifiers

Question: `C=C(c1ccc(C(=O)O)cc1)c1cc2c(cc1C)C(C)(C)CCC2(C)C` [Bexarotene] was tested. Which cellular reprogramming (cellular reprogramming; at 3 μM) did it give?
Answer: enhance cellular reprogramming

Question: `Cc1c[nH]c(-c2cnc(NCCNc3ccc(C#N)cn3)nc2-c2ccc(Cl)cc2Cl)n1` [CHIR99021] was tested. Which “efficiency and speed of development of pluripotent cells” value (from here on “efficiency and speed”) (Mouse fibroblasts) did it give?
Answer: improved efficiency and speed of development of pluripotent cells

Question: Which cellular reprogramming (cellular reprogramming; at 5 μM) does the source give for `CC(C)C[C@H](NC(=O)OCC1c2ccccc2-c2ccccc21)C(=O)O` [Fmoc-Leu] here?
Answer: enhance cellular reprogramming

Question: With `CCN(CC)CCCCNc1ncc2cc(-c3cc(OC)cc(OC)c3)c(NC(=O)NC(C)(C)C)nc2n1` [PD173074] as the compound, how does the “outcome in second synergist screen” value [3] read?
Answer: primary hits

Question: For `O=C(NOC[C@H](O)CO)c1ccc(F)c(F)c1Nc1ccc(I)cc1F` [PD0325901], which “growth of non-iPS cells” value (non-iPS cells) is on record?
Answer: inhibits growth of non-iPS cells

Question: What about the “growth and stable reprogramming of iPS cells” value (iPS cells) of the same compound?
Answer: effectively promotes growth and stable reprogramming of iPS cells

Question: And the “efficiency and speed” value (Mouse fibroblasts)?
Answer: improved efficiency and speed of development of pluripotent cells

Question: For `O=C(O)C(Cc1c[nH]c2ccccc12)N1C(=O)c2ccccc2C1=O` (stereo not shown) [RG108], which “effect on reprogramming of OK transduced MEFs in the second screen” value [3] is on record?
Answer: enhanced reprogramming of OK transduced MEFs in the presence of BIX

Question: `NC(=O)c1ccc(-c2nc(-c3ccc4c(c3)OCO4)c(-c3ccccn3)[nH]2)cc1` [SB431542] was tested. Which “efficiency and speed” value (Mouse fibroblasts) did it give?
Answer: improved efficiency and speed of development of pluripotent cells

Question: Which “outcome in second synergist screen” value [3] does the source give for `Cc1cc(Nc2ncc3c(n2)N(C)C(=O)N(c2cc(NC(=O)c4cccc(C(F)(F)F)c4)ccc2C)C3)n(C)n1` [pluripotin] here?
Answer: primary hits

Question: For `c1nc2nc(Nc3ccc(N4CCOCC4)cc3)nc(NC3CCCCC3)c2[nH]1` [reversine], which “outcome in second synergist screen” value [3] is on record?
Answer: primary hits
